Test results from ChEMBL document CHEMBL3046358, “Multiple Pro-197 substitutions in the acetolactate synthase of rigid ryegrass (Lolium rigidum) and their impact on chlorsulfuron activity and plant growth” (Crop Prot, 2012).

Tests used:
[1] = tested on: Lolium rigidum; assay: Herbicidal activity against Lolium rigidum accession A14 assessed as emergence rate applied at 4 times pre-emergence recommended rate relative to untreated control; assay type: functional
[2] = tested on: Lolium rigidum; assay: Herbicidal activity against Lolium rigidum accession A12 assessed as emergence rate applied at 4 times pre-emergence recommended rate relative to untreated control; assay type: functional
[3] = tested on: Lolium rigidum; assay: Herbicidal activity against Lolium rigidum accession A11 assessed as emergence rate applied at 4 times pre-emergence recommended rate relative to untreated control; assay type: functional
[4] = tested on: Lolium rigidum; assay: Herbicidal activity against Lolium rigidum accession A08 assessed as emergence rate applied at 4 times pre-emergence recommended rate relative to untreated control; assay type: functional
[5] = target: T1, Acetolactate synthase (Lolium rigidum) (UniProt A7XBP7); assay: Resistance index, ratio of I50 for acetolactate synthase […]/Leu-197 mutant in Lolium rigidum accession A18 leaves extracts to I50 for acetolactate synthase in Lolium rigidum accession A01 leaves extracts
T1 sequence (whole entry): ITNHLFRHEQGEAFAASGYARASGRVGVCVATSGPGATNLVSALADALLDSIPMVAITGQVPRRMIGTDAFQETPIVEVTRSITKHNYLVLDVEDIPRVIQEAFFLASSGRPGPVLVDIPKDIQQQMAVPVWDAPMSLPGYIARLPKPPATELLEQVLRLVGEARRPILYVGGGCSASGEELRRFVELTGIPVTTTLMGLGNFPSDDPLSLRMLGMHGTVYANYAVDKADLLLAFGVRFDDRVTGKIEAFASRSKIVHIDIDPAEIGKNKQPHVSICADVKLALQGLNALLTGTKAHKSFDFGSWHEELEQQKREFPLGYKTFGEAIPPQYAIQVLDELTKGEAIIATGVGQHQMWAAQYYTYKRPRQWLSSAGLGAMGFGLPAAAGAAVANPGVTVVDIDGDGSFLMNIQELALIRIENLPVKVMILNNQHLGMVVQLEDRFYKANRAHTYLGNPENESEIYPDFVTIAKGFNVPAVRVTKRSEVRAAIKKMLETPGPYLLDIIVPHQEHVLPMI

[6] = target: T1, Acetolactate synthase (Lolium rigidum); assay: Resistance index, ratio of I50 for acetolactate synthase Pro-197/Pro-197 mutant in Lolium rigidum accession A10 leaves extracts to I50 for acetolactate synthase in Lolium rigidum accession A01 leaves extracts
[7] = tested on: Lolium rigidum; assay: Herbicidal activity against Lolium rigidum accession A05 assessed as emergence rate applied at 1 times pre-emergence recommended rate applied in pots where terbufos had been incorporated into the soil relative to untreated control; assay type: functional
[8] = tested on: Lolium rigidum; assay: Herbicidal activity against Lolium rigidum accession A02 assessed as emergence rate applied at 1 times pre-emergence recommended rate applied in pots where terbufos had been incorporated into the soil relative to untreated control; assay type: functional
[9] = tested on: Lolium rigidum; assay: Herbicidal activity against Lolium rigidum accession A14 assessed as emergence rate applied at 1 times pre-emergence recommended rate relative to untreated control; assay type: functional
[10] = tested on: Lolium rigidum; assay: Herbicidal activity against Lolium rigidum accession A12 assessed as emergence rate applied at 1 times pre-emergence recommended rate relative to untreated control; assay type: functional
[11] = tested on: Lolium rigidum; assay: Herbicidal activity against Lolium rigidum accession A11 assessed as emergence rate applied at 1 times pre-emergence recommended rate relative to untreated control; assay type: functional
[12] = tested on: Lolium rigidum; assay: Herbicidal activity against Lolium rigidum accession A09 assessed as emergence rate applied at 1 times pre-emergence recommended rate relative to untreated control; assay type: functional
[13] = tested on: Lolium rigidum; assay: Herbicidal activity against Lolium rigidum accession A07 assessed as emergence rate applied at 1 times pre-emergence recommended rate relative to untreated control; assay type: functional
[14] = target: T2, Acetolactate synthase (Lolium rigidum, UniProt A7XBP7); assay: Inhibition of acetolactate synthase Pro-197/Pro-197 mutant in Lolium rigidum accession A10 leaves extracts by acetolactate production assay; settings: read-out: I50
[15] = target: Acetolactate synthase (Lolium rigidum, UniProt A7XBP7, P197L); assay: Inhibition of acetolactate synthase Pro-197/Leu-197 mutant in Lolium rigidum accession A07 leaves extracts by acetolactate production assay; settings: read-out: I50
[16] = target: T2, Acetolactate synthase; assay: Inhibition of acetolactate synthase Ala-197/Ala-197 mutant in Lolium rigidum accession A05 leaves extracts by acetolactate production assay; settings: read-out: I50
[17] = tested on: Lolium rigidum; assay: Herbicidal activity against Lolium rigidum accession A09 assessed as emergence rate applied at 1 times pre-emergence recommended rate applied in pots where terbufos had been incorporated into the soil relative to untreated control; assay type: functional
[18] = tested on: Lolium rigidum; assay: Herbicidal activity against Lolium rigidum accession A14 assessed as fresh weight reduction applied at 4 times pre-emergence recommended rate relative to untreated control; assay type: functional; design: scale not given: the % may be the effect or the level left
[19] = tested on: Lolium rigidum; assay: Herbicidal activity against Lolium rigidum accession A01 assessed as emergence rate applied at 4 times pre-emergence recommended rate relative to untreated control; assay type: functional
[20] = tested on: Lolium rigidum; assay: Herbicidal activity against Lolium rigidum accession A14 assessed as emergence rate applied at 1 times pre-emergence recommended rate applied in pots where terbufos had been incorporated into the soil relative to untreated control; assay type: functional
[21] = tested on: Lolium rigidum; assay: Herbicidal activity against Lolium rigidum accession A08 assessed as fresh weight reduction applied at 4 times pre-emergence recommended rate relative to untreated control; assay type: functional; design: scale not given: the % may be the effect or the level left
[22] = tested on: Lolium rigidum; assay: Herbicidal activity against Lolium rigidum accession A07 assessed as fresh weight reduction applied at 4 times pre-emergence recommended rate relative to untreated control; assay type: functional; design: scale not given: the % may be the effect or the level left
[23] = tested on: Lolium rigidum; assay: Herbicidal activity against Lolium rigidum accession A05 assessed as fresh weight reduction applied at 4 times pre-emergence recommended rate relative to untreated control; assay type: functional; design: scale not given: the % may be the effect or the level left
[24] = tested on: Lolium rigidum; assay: Herbicidal activity against Lolium rigidum accession A04 assessed as fresh weight reduction applied at 4 times pre-emergence recommended rate relative to untreated control; assay type: functional; design: scale not given: the % may be the effect or the level left
[25] = tested on: Lolium rigidum; assay: Herbicidal activity against Lolium rigidum accession A14 assessed as fresh weight reduction applied at 1 times pre-emergence recommended rate applied in pots where terbufos had been incorporated into the soil relative to untreated control; assay type: functional; design: scale not given: the % may be the effect or the level left
[26] = tested on: Lolium rigidum; assay: Herbicidal activity against Lolium rigidum accession A05 assessed as fresh weight reduction applied at 1 times pre-emergence recommended rate applied in pots where terbufos had been incorporated into the soil relative to untreated control; assay type: functional; design: scale not given: the % may be the effect or the level left
[27] = tested on: Lolium rigidum; assay: Herbicidal activity against Lolium rigidum accession A04 assessed as fresh weight reduction applied at 1 times pre-emergence recommended rate applied in pots where terbufos had been incorporated into the soil relative to untreated control; assay type: functional; design: scale not given: the % may be the effect or the level left
[28] = tested on: Lolium rigidum; assay: Herbicidal activity against Lolium rigidum accession A02 assessed as fresh weight reduction applied at 1 times pre-emergence recommended rate applied in pots where terbufos had been incorporated into the soil relative to untreated control; assay type: functional; design: scale not given: the % may be the effect or the level left
[29] = tested on: Lolium rigidum; assay: Herbicidal activity against Lolium rigidum accession A01 assessed as fresh weight reduction applied at 1 times pre-emergence recommended rate applied in pots where terbufos had been incorporated into the soil relative to untreated control; assay type: functional; design: scale not given: the % may be the effect or the level left
[30] = tested on: Lolium rigidum; assay: Herbicidal activity against Lolium rigidum accession A12 assessed as fresh weight reduction applied at 1 times pre-emergence recommended rate relative to untreated control; assay type: functional; design: scale not given: the % may be the effect or the level left
[31] = tested on: Lolium rigidum; assay: Herbicidal activity against Lolium rigidum accession A11 assessed as fresh weight reduction applied at 1 times pre-emergence recommended rate relative to untreated control; assay type: functional; design: scale not given: the % may be the effect or the level left
[32] = tested on: Lolium rigidum; assay: Herbicidal activity against Lolium rigidum accession A06 assessed as fresh weight reduction applied at 1 times pre-emergence recommended rate relative to untreated control; assay type: functional; design: scale not given: the % may be the effect or the level left
[33] = tested on: Lolium rigidum; assay: Herbicidal activity against Lolium rigidum accession A03 assessed as fresh weight reduction applied at 1 times pre-emergence recommended rate relative to untreated control; assay type: functional; design: scale not given: the % may be the effect or the level left
[34] = tested on: Lolium rigidum; assay: Herbicidal activity against Lolium rigidum accession A01 assessed as fresh weight reduction applied at 1 times pre-emergence recommended rate relative to untreated control; assay type: functional; design: scale not given: the % may be the effect or the level left
[35] = tested on: Lolium rigidum; assay: Herbicidal activity against Lolium rigidum accession A15 assessed as fresh weight reduction applied at 1 times pre-emergence recommended rate relative to untreated control; assay type: functional; design: scale not given: the % may be the effect or the level left

COc1nc(C)nc(NC(=O)NS(=O)(=O)c2ccccc2Cl)n1 [CHLORSULFURON]
Activity [1]: 1% | Activity [2]: 1% | Activity [3]: 1% | Activity [4]: 45% | Ratio [5]: 54 | Ratio [6]: 1 | Activity [7]: 95% | Activity [8]: 0% | Activity [9]: 1% | Activity [10]: 2% | Activity [11]: 42% | Activity [12]: 44% | Activity [13]: 89% | IC50 [14]: 0.04 µM | IC50 [15]: 1.82 µM | IC50 [16]: 4.89 µM | Activity [17]: 3% | Activity [18]: 96% | Activity [19]: 1% | Activity [20]: 1% | Activity [21]: 46% | Activity [22]: 49% | Activity [23]: 2% | Activity [24]: 95% | Activity [25]: 98% | Activity [26]: 0% | Activity [27]: 96% | Activity [28]: 100% | Activity [29]: 99% | Activity [30]: 95% | Activity [31]: 54% | Activity [32]: 0% | Activity [33]: 95% | Activity [34]: 98% | Activity [35]: 94%
